The source of these data is US20240400521A1, “QUINAZOLINE COMPOUND, COMPOSITION, AND APPLICATION THEREOF” (BEIJING SCITECH-MQ PHARMACEUTICALS LIMITED, priority 2021, published 2024).

Molecules are shown by their SMILES.

For one assay, the target named is T1, HER2 kinase (Homo sapiens, UniProt P04626).
T1 construct: purchased Carna Biosciences 08-016
As to the kind of experiment: HER2 kinase assay (ULight peptide / Eu-PT66 antibody detection). Type of assay: biochemical. From the text:
(§1) Reagents and consumables: ULight™-labeled Ploy GT Peptide (Perkin Elmer, Cat. No. TRF-0100-M); ULight™-labeled JAK-1 (Try1023) Peptide (Perkin Elmer, Cat. No. TRF-0121-M); Eu-W1024-labeled Anti-Phosphotyrosine Antibody (PT66) (Perkin Elmer, Cat. No. AD0068); 10×Detection Buffer (Perkin Elmer, Cat. No. CR97-100); HER2 Kinase (Carna Biosciences, Cat. No. 08-016); EGFR kinase (Carna Biosciences, Cat. No. 08-115); HEPES (GIBCO, Cat. No. 15630-080); EGTA (Sigma, Cat. No. 03777-10G); EDTA (Sigma, Cat. No. EDS-100G); MgCl2 (Sigma, Cat. No. 63069-100ML); DTT (Sigma, Cat. No. 43816-10ML); Tween-20 (Sigma, Cat. No. P7949-100ML); DMSO (Life Science, Cat. No. 0231-500ML); 384-well plates (Perkin Elmer, Cat. No. 607290); multifunctional plate reader (Perkin Elmer, Cat. No. Envision)
(§2) Preparation of compound solution: The assay compound was dissolved in DMSO to form a 10 mM stock solution. Prior to use, the compound was diluted to 0.25 mM in DMSO (100 times the final concentration of the diluent) and then subjected to a 3-fold concentration gradient dilution to obtain a total of 11 concentrations. The solution was diluted with buffer to a diluent with 4× the final concentration when the drug was added.
HER2 kinase assay: buffer was prepared, and 40 nM 4× HER2 kinase solution, 40 μM 4× ATP solution, and 400 nM 4×ULight™-labeled Ploy GT Peptide substrate solution were prepared using the buffer. After the preparation was completed, the enzyme was mixed with different concentrations of compounds pre-prepared by dilution, and the mixture was left to stand at room temperature for 5 min. Each concentration was performed in duplicate. The corresponding substrate and ATP were added and the mixture was reacted at room temperature for 120 minutes (with negative and positive controls). After completion of the reaction, PT66 detection antibody was added. The mixture was incubated at room temperature for 60 minutes, and then detected by Envision.
(§3) Data Calculation: the reading of well and inhibition rate were calculated using Excel, wherein reading of well=10000*(well EU665 value)/(well EU615 value), and inhibition rate=[(reading of positive control well−reading of assay well)/(reading of positive control well−reading of negative control well)]*100%. Compound concentrations and corresponding inhibition rates were input into GraphPad Prism for processing to calculate IC50 values.

The target in assay [1] is Ba/F3 EGFR D770_N771insSVD cells (Homo sapiens, UniProt P00533, DUP768-770, cells depend on it). In words: Inhibition of cell proliferation, CTG method, Ba/F3 EGFR D770_N771insSVD. Type of assay: cell-based. To be noted: 72 hours, read-out: Ba/F3 EGFR D770_N771insSVD IC50. From the text: (§4) The present application examined the in vitro anti-proliferative activity of the compounds of the present disclosure against in vitro cultured HCC-827, Ba/F3-EGFR-VIII and Ba/F3 EGFR D770_N771insSVD cell lines by CTG method.
(§5) Reagents and consumables: RPMI1640 (ThermoFisher, Cat. No. C11875500BT); DMEM (ThermoFisher, C11995500BT); fetal bovine serum (Hyclone, Cat. No. SV30087.03); 0.25% trypsin-EDTA (ThermoFisher, Cat. No. 25200072); penicillin-streptomycin (Hyclone, Cat. No. SV30010); DMSO (Life Science, Cat. No. 0231-500ML); CTG assay kit (Promega, Cat. No. G9243); 96-well plate (Corning, Cat. No. 3599); multifunctional plate reader (Perkin Elmer, Cat. No. Envision)
(§6) Cell lines: HCC-827 (from ATCC), Ba/F3-EGFR-VIII and Ba/F3 EGFR D770_N771insSVD (all from KYinno Biotechnology (Beijing) Co., Ltd.); all of the above cells were cultured with RPMI1640 medium containing 10% fetal bovine serum, 100 U/mL penicillin, and 100 μg/mL streptomycin in the culture process, and HCC-827 was cultured with DMEM medium containing 10% fetal bovine serum, 100 U/mL penicillin, and 100 μg/mL streptomycin.
(§7) • 1. The assay compound was dissolved with DMSO to form a stock solution and a gradient dilution was performed, followed by dilution with the corresponding medium to obtain a solution with 5-fold working concentration. • 2. Cells in logarithmic growth phase were adjusted to specific cell densities by dilution with culture medium, and 80 μL of cell suspension was added to a 96-well plate, such that plating densities of cells of HCC-827, Ba/F3-EGFR-VIII and Ba/F3 EGFR D770_N771insSVD were all 3000 cells/well. The cells of Ba/F3-EGFR-VIII and Ba/F3 EGFR D770_N771insSVD were used directly in the next step (treatment with compound), whereas the HCC-827 needed to be cultured overnight in a 37° C., 5% carbon dioxide gas incubator to adhere to the wall, and then treated with compounds. • 3. 20 μL of compound solution was added to each well of the 96-well plate that had been inoculated with cells. The highest concentration of the assayed compound was 10 μM, 4-fold serial dilution, a total of 9 concentrations, and duplicate wells. A control group without compound was also set up. • 4. The cells were cultured for another 72 hours, and then cell viability was detected by CTG assay kit. Signal values were read with a multifunctional plate reader (Perkin Elmer). GraphPad Prism software was used to create a dose-response curve and IC50 was calculated.

The target in a further assay is T2, EGFR^WT kinase (Homo sapiens, UniProt P00533).
T2 construct: purchased Carna Biosciences 08-115
As to the kind of experiment: EGFR^WT kinase assay (ULight peptide / Eu-PT66 antibody detection). It is filed as biochemical.
Description: as §1, §2
EGFR^WT kinase assay: buffer was prepared, and 3.48 nM 4× EGFR kinase solution, 600 μM 4× ATP solution, and 400 nM 4×ULight™-labeled JAK-1 (Try1023) Peptide substrate solution was prepared using the buffer. After the preparation was completed, the enzyme was mixed with different concentrations of compounds pre-prepared by dilution, and the mixture was left to stand at room temperature for 5 min. Each concentration was performed in duplicate. The corresponding substrate and ATP were added and the mixture was reacted at room temperature for 120 minutes (with negative and positive controls). After completion of the reaction, PT66 detection antibody was added. The mixture was incubated at room temperature for 60 minutes, and then detected by Envision.
as §3

The test system of a further assay is HCC-827 cells. As to the kind of experiment: Inhibition of cell proliferation, CTG method, HCC-827. It is filed as cell-based. Conditions: Homo sapiens, HCC827, 72 hours.
Description: as §4, §5, §6, §7

For a further assay, the target named is Ba/F3-EGFR-VIII cells (Homo sapiens, UniProt P00533, DELINS30-297G, cells depend on it). In words: Inhibition of cell proliferation, CTG method, Ba/F3-EGFR-VIII. Conditions: 72 hours, read-out: Ba/F3 EGFRvIII IC50. It is filed as cell-based.
Description: as §4, §5, §6, §7

T1 sequence (P04626 23-1255): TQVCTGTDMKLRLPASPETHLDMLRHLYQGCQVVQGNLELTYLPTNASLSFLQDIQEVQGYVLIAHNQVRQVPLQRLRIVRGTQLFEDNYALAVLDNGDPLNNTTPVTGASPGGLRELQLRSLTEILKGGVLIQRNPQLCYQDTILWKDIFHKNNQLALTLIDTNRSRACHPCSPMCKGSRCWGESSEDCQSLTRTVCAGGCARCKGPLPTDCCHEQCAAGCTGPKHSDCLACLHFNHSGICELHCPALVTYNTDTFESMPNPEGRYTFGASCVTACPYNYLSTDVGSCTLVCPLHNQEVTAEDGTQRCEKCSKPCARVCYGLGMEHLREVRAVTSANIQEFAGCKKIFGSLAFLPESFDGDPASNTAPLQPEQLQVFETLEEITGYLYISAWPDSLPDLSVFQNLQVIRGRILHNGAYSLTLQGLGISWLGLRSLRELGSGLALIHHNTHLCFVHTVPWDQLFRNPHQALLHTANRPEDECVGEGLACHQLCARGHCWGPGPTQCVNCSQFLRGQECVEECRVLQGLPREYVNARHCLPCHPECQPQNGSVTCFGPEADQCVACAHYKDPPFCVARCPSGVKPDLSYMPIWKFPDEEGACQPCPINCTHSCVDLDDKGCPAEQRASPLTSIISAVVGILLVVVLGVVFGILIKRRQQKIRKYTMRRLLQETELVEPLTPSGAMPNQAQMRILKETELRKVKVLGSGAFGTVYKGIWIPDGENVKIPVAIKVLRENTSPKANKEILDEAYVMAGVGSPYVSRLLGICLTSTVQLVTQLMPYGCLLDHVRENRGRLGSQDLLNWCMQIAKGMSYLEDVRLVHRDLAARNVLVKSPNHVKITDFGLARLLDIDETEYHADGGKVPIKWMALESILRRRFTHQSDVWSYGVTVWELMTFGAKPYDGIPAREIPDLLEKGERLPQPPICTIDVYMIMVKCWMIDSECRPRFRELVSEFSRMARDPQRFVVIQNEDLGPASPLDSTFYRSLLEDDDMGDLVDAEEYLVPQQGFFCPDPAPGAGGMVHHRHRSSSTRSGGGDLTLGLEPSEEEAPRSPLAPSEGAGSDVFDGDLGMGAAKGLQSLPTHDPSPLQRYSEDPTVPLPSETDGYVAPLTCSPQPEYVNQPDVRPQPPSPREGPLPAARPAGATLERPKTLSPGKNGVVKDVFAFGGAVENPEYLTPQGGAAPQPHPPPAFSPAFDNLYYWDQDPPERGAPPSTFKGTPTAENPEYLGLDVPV
Chain of Ba/F3 EGFR D770_N771insSVD cells (P00533 with tags, fused parts or gaps DUP768-770): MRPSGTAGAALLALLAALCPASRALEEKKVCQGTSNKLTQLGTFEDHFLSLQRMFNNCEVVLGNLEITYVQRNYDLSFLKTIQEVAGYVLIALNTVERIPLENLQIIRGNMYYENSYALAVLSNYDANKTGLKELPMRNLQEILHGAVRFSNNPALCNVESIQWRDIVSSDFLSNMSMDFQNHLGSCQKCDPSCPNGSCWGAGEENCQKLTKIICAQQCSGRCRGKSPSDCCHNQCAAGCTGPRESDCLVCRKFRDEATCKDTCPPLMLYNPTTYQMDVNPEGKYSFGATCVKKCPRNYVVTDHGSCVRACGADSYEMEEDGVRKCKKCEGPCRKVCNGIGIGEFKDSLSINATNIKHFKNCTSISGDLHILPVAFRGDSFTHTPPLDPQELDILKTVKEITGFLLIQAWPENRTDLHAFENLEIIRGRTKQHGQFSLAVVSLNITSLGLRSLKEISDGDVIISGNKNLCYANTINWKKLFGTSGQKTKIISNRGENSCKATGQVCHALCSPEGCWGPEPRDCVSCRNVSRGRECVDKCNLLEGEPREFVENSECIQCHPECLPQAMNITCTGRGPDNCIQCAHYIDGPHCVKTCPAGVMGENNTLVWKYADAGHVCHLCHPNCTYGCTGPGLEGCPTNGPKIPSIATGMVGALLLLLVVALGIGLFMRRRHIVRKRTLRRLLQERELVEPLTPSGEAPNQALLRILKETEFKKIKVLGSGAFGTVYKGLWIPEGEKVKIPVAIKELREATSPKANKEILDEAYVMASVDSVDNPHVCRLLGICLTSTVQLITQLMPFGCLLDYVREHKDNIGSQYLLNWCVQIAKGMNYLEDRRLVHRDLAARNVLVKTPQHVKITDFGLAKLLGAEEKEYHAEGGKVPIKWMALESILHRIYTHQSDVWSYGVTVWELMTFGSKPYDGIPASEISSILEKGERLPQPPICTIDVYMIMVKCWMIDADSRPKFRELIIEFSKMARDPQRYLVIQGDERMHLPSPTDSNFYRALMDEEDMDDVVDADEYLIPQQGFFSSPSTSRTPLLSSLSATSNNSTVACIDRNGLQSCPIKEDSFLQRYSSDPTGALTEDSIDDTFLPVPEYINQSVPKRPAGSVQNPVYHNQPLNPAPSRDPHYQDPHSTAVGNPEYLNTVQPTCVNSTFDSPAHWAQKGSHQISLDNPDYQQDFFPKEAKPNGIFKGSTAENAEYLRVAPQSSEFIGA
Chain of Ba/F3-EGFR-VIII cells (P00533 with tags, fused parts or gaps DELINS30-297G): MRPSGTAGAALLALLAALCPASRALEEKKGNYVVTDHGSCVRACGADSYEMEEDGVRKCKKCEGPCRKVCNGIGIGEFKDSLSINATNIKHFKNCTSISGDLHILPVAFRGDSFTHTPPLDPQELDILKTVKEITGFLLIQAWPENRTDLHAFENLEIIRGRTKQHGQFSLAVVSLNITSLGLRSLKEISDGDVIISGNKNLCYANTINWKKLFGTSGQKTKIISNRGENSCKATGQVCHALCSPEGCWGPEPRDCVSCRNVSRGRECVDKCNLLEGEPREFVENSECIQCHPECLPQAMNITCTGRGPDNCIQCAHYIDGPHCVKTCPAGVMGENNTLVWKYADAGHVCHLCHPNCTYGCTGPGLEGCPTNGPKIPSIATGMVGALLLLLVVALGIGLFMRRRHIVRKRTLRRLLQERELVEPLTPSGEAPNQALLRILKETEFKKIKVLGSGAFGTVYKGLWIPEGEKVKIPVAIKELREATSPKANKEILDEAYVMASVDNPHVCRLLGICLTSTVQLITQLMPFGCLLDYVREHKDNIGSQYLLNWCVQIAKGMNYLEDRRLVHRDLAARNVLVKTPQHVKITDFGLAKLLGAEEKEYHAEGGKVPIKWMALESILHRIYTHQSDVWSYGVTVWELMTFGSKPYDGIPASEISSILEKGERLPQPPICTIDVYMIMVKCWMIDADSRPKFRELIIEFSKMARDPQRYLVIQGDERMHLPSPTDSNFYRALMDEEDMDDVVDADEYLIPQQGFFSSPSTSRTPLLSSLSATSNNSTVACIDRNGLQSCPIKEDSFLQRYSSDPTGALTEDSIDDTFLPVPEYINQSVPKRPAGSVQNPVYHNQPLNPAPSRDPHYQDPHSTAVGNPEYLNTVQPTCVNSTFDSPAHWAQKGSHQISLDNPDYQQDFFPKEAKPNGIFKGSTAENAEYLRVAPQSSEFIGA
T2 sequence (P00533 25-1210): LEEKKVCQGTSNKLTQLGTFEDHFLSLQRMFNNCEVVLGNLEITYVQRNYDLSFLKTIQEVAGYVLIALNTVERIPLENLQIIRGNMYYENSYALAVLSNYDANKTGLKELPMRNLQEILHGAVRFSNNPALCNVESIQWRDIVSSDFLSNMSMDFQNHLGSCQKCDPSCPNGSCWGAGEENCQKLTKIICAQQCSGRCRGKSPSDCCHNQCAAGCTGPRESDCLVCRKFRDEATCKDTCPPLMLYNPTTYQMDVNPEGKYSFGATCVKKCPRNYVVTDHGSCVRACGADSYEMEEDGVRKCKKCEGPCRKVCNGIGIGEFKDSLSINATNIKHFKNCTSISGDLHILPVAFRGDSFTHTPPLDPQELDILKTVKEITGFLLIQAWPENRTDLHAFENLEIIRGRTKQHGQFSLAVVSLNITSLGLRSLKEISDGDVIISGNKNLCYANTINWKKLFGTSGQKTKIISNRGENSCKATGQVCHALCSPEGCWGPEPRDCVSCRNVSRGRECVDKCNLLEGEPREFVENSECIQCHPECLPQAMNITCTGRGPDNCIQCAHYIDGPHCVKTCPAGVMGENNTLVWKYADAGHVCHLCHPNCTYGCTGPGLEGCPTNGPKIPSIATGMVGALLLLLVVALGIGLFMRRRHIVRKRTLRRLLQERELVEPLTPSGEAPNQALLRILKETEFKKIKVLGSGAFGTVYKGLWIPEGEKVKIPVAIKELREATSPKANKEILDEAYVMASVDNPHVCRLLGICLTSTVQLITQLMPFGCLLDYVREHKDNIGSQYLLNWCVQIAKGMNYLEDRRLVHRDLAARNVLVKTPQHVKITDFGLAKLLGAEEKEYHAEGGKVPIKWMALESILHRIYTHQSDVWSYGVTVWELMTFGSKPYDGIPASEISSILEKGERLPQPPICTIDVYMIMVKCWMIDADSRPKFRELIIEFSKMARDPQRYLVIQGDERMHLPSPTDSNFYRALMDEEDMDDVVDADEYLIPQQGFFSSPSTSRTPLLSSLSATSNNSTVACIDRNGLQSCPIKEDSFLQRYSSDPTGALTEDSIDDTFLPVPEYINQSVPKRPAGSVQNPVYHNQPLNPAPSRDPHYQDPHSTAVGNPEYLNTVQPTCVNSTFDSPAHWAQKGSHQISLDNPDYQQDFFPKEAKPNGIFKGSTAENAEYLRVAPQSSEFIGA

`COCCOc1c(NC(=O)/C=C/[C@H]2CCCN2C)ccc2ncnc(Nc3ccc(Cl)c(Cl)c3F)c12` [Example 24, (R,E)-N-(4-((3,4-dichloro-2-fluorophenyl)amino)-5-(2-methoxyethoxy)quinazolin-6-yl)-3-(1-methylpyrrolidin-2-yl)acrylamide]: the IC50 (in general, the concentration at which inhibition is half-maximal) against HER2 kinase was 10 to 100 nM; at EGFR^WT kinase it was not above 1 nM; with HCC-827 cells, not above 5 nM. In assay [1], the GI50 is 50 to 500 nM.

For the compound `CN(C)C/C=C/C(=O)Nc1ccc2ncnc(Nc3cccc(Cl)c3F)c2c1OCCCS(C)(=O)=O` [Example 7, (E)-N-(4-((3-chloro-2-fluorophenyl)amino)-5-(3-(methylsulfonyl)propoxy)quinazolin-6-yl)-4-(dimethylamino)but-2-enamide], the IC50 against HER2 kinase was 100 to 1000 nM; against EGFR^WT kinase, not above 1 nM; in the assay with HCC-827 cells, not above 5 nM. In addition, on Ba/F3-EGFR-VIII cells, the GI50 lay in the range of 5 to 50 nM.

Regarding `COc1c(NC(=O)/C=C/CN(C)C(C)C)ccc2ncnc(Nc3cccc(Cl)c3F)c12` [Example 8, (E)-N-(4-((3-chloro-2-fluorophenyl)amino)-5-methoxyquinazolin-6-yl)-4-(isopropyl(methyl)amino)but-2-enamide], the results for the IC50 against HER2 kinase, on EGFR^WT kinase and with HCC-827 cells were 10 to 100 nM, not above 1 nM and not above 5 nM, respectively. Moreover, the GI50 on Ba/F3-EGFR-VIII cells was 5 to 50 nM; in assay [1], 50 to 500 nM.

For the compound `CN1CCC[C@@H]1/C=C/C(=O)Nc1ccc2ncnc(Nc3ccc(Cl)c(Cl)c3F)c2c1OCCO` [Example 22, (R,E)-N-(4-((3,4-dichloro-2-fluorophenyl)amino)-5-(2-hydroxyethoxy)quinazolin-6-yl)-3-(1-methylpyrrolidin-2-yl)acrylamide], the IC50 against HER2 kinase was 1 to 10 nM; against EGFR^WT kinase it was not above 1 nM; with HCC-827 cells it was not above 5 nM. Also, the GI50 in assay [1] fell in the range of 5 to 50 nM.

As to `CN(C)C/C=C/C(=O)Nc1ccc2ncnc(Nc3cccc(Cl)c3F)c2c1OCCCO` [Example 11, (E)-N-(4-((3-chloro-2-fluorophenyl)amino)-5-(3-hydroxypropoxy)quinazolin-6-yl)-4-(dimethylamino)but-2-enamide], the IC50 was 100 to 1000 nM on HER2 kinase, not above 1 nM at EGFR^WT kinase and not above 5 nM with HCC-827 cells. The GI50 was not above 5 nM at Ba/F3-EGFR-VIII cells and 50 to 500 nM in assay [1].

Turning to `CN(C)C/C=C/C(=O)Nc1ccc2ncnc(Nc3cccc(Cl)c3F)c2c1OCCO` [Example 5, (E)-N-(4-((3-chloro-2-fluorophenyl)amino)-5-(2-hydroxyethoxy)quinazolin-6-yl)-4-(dimethylamino)but-2-enamide], the IC50 is 10 to 100 nM at HER2 kinase, not above 1 nM against EGFR^WT kinase and not above 5 nM in the assay on HCC-827 cells. The GI50 at Ba/F3-EGFR-VIII cells was not above 5 nM; in assay [1], 5 to 50 nM.

`COc1c(NC(=O)/C=C/[C@H]2CCCN2C)ccc2ncnc(Nc3ccc(Cl)c(Cl)c3F)c12` [Example 20, (R,E)-N-(4-((3,4-dichloro-2-fluorophenyl)amino)-5-methoxyquinazolin-6-yl)-3-(1-methylpyrrolidin-2-yl)acrylamide]: the IC50 was 1 to 10 nM at HER2 kinase, not above 1 nM on EGFR^WT kinase and not above 5 nM in the assay with HCC-827 cells. In addition, the GI50 in assay [1] lay within 50 to 500 nM.

With `CSCCOc1c(NC(=O)/C=C/CN(C)C)ccc2ncnc(Nc3cccc(Cl)c3F)c12` [Example 12, (E)-N-(4-((3-chloro-2-fluorophenyl)amino)-5-(2-(methylthio)ethoxy)quinazolin-6-yl)-4-(dimethylamino)but-2-enamide], the IC50 at HER2 kinase is 10 to 100 nM; against EGFR^WT kinase, not above 1 nM; with HCC-827 cells, 5 to 50 nM. Further, the GI50 on Ba/F3-EGFR-VIII cells lay within 5 to 50 nM.

Take `COCCCOc1c(NC(=O)/C=C/CN(C)C)ccc2ncnc(Nc3cccc(Cl)c3F)c12` [Example 6, (E)-N-(4-((3-chloro-2-fluorophenyl)amino)-5-(3-methoxypropoxy)quinazolin-6-yl)-4-(dimethylamino)but-2-enamide]: the figures for the IC50 on HER2 kinase, on EGFR^WT kinase and with HCC-827 cells were 100 to 1000 nM, not above 1 nM and not above 5 nM, respectively. Moreover, the GI50 on Ba/F3-EGFR-VIII cells lay within 5 to 50 nM; in assay [1] it was 50 to 500 nM.

On to `CN(C)C/C=C/C(=O)Nc1ccc2ncnc(Nc3cccc(Cl)c3F)c2c1OCCC(F)(F)F` [Example 18, (E)-N-(4-((3-chloro-2-fluorophenyl)amino)-5-(3,3,3-trifluoropropoxy)quinazolin-6-yl)-4-(dimethylamino)but-2-enamide], for which the IC50 was 100 to 1000 nM on HER2 kinase, not above 1 nM at EGFR^WT kinase and not above 5 nM with HCC-827 cells. Moreover, the GI50 at Ba/F3-EGFR-VIII cells fell in the range of 5 to 50 nM; in assay [1] it was 50 to 500 nM.

For the compound `CN(C)C/C=C/C(=O)Nc1ccc2ncnc(Nc3ccc(Cl)c(Cl)c3F)c2c1OCCO` [Example 21, (E)-N-(4-((3,4-dichloro-2-fluorophenyl)amino)-5-(2-hydroxyethoxy)quinazolin-6-yl)-4-(dimethylamino)but-2-enamide], the IC50 is 10 to 100 nM at HER2 kinase, not above 1 nM at EGFR^WT kinase and not above 5 nM in the assay with HCC-827 cells. For the same compound, in assay [1], the GI50 is 5 to 50 nM.

`COCCOc1c(NC(=O)/C=C/CN(C)C)ccc2ncnc(Nc3ccc(Cl)c(Cl)c3F)c12` [Example 23, (E)-N-(4-((3,4-dichloro-2-fluorophenyl)amino)-5-(2-methoxyethoxy)quinazolin-6-yl)-4-(dimethylamino)but-2-enamide]: the IC50 was 10 to 100 nM on HER2 kinase, not above 1 nM against EGFR^WT kinase and not above 5 nM in the assay with HCC-827 cells. For the same compound, the GI50 in assay [1] lay in the range of 50 to 500 nM.
